Some test systems named below: SF-268; KM12; Hs-578T; NCI-H23; HOP-92; IGROV-1; SK-MEL-5; UACC-257; RXF 393; PC-3; SK-MEL-28; HCT-116; OVCAR-4; SF-539; HT-29; SNB-19; OVCAR-3; NCI-H522.
What all share (assay): inhibition of tumour cell growth, NCI panel, 48 h

Molecules are shown by their SMILES.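 Compound exposure: 48 hours, 5 concentrations, 96-well plates. GI50 marks 50% less growth.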 Activity calls are given as the source filed them. Rule as the data show it: active = GI50 up to about 1.1 µM and inactive = higher.

As to `CC(=O)Nc1ccc(-c2nc3ccccc3s2)cc1C`, the GI50 in the experiment with SF-268 is 64.4 µM (inactive); with KM12, 51.2 µM (inactive); with Hs-578T it was 45.4 µM (inactive); in the experiment on NCI-H23, 75.5 µM (inactive); in the experiment on HOP-92, > 100 µM (inactive); in the experiment with IGROV-1, 38.6 µM (inactive). The GI50 was 58.9 µM (inactive) in the experiment with SK-MEL-5; 69.7 µM (inactive) with UACC-257; 44.7 µM (inactive) with RXF 393; 29 µM (inactive) in the experiment with PC-3; 99.1 µM (inactive) in the experiment on SK-MEL-28; 78.7 µM (inactive) in the experiment on HCT-116. Moreover, the GI50 with OVCAR-4 was 42.5 µM (inactive); with SF-539 it was 50.8 µM (inactive); in the experiment on HT-29, > 100 µM (inactive); in the experiment on SNB-19, 36.9 µM (inactive).
For `Cc1csc2nc(-c3ccc(Cl)c([N+](=O)[O-])c3)c(/C=N/NC(=N)N)n12`, the GI50 was 1.71 µM (inactive) in the experiment on SF-268; 1.75 µM (inactive) in the experiment with KM12; 1.4 µM (inactive) in the experiment with Hs-578T; 1.7 µM (inactive) in the experiment with NCI-H23; 1.96 µM (inactive) with OVCAR-3; 0.163 µM (active) in the experiment on HOP-92. In addition, the GI50 in the experiment on SK-MEL-5 is 1.52 µM (inactive); with UACC-257 it was 0.459 µM (active); with RXF 393 it was 1.63 µM (inactive); with PC-3 it was 1.48 µM (inactive); with SK-MEL-28 it was 1.82 µM (inactive); with HCT-116, 1.68 µM (inactive). In addition, the GI50 is 1.64 µM (inactive) in the experiment on OVCAR-4, 1.61 µM (inactive) in the experiment with SF-539, 1.77 µM (inactive) in the experiment with HT-29 and 1.3 µM (inactive) in the experiment with SNB-19.
For `CC1=NN(c2nc(N)nc(COc3ccc(N)cc3)n2)C(C)(C)C1`, the GI50 in the experiment on SF-268, with KM12, with Hs-578T, in the experiment on NCI-H23, with HOP-92 and with IGROV-1 was > 100 µM (inactive) each time. For the same molecule, the GI50 in the experiment with SK-MEL-5, with UACC-257, in the experiment on RXF 393, in the experiment with PC-3, with SK-MEL-28 and in the experiment on HCT-116 was > 100 µM (inactive) in each case. Further, the GI50 with OVCAR-4, in the experiment with SF-539, with HT-29 and with SNB-19 was > 100 µM (inactive) in each case.
On to `C/N=C(\N)N/N=C(\C)c1ccc2oc3ccc(/C(C)=N/N/C(N)=N/C)cc3c2c1`, for which the GI50 with SF-268 is 2.09 µM (inactive); in the experiment on KM12 it was 3.16 µM (inactive); with Hs-578T, 1.43 µM (inactive); in the experiment on NCI-H23 it was 2.39 µM (inactive); in the experiment on OVCAR-3, 2.64 µM (inactive); in the experiment with HOP-92, 2.07 µM (inactive). Further, the GI50 in the experiment with IGROV-1 was 2.24 µM (inactive); in the experiment on SK-MEL-5 it was 2.62 µM (inactive); in the experiment on UACC-257, 25.6 µM (inactive); in the experiment with PC-3, 3.01 µM (inactive); in the experiment on SK-MEL-28, 3.93 µM (inactive); in the experiment on NCI-H522, 1.67 µM (inactive). Further, the GI50 was 2.79 µM (inactive) with HCT-116; 3.8 µM (inactive) in the experiment on OVCAR-4; 1.62 µM (inactive) in the experiment on SF-539; 1.73 µM (inactive) in the experiment with HT-29; 2.11 µM (inactive) in the experiment with SNB-19.
On to `CSc1ncc2c(C#N)c3n(C)c4ccccc4n3c(=O)c2n1`, for which the GI50 in the experiment with SF-268, with KM12, in the experiment on Hs-578T, with NCI-H23, in the experiment on OVCAR-3 and with HOP-92 was > 100 µM (inactive) each time. The GI50 in the experiment on IGROV-1, with SK-MEL-5, in the experiment with UACC-257, in the experiment on RXF 393, in the experiment with PC-3 and in the experiment on SK-MEL-28 was > 100 µM (inactive) throughout. The GI50 in the experiment with HCT-116, with OVCAR-4, in the experiment with SF-539, in the experiment on HT-29 and in the experiment with SNB-19 was > 100 µM (inactive) throughout.
Regarding `CC1C=C(NCC2(CO)CCC2)N=C(N)N1` (configuration not stated), the GI50 in the experiment with SF-268, in the experiment on KM12, in the experiment with Hs-578T, with NCI-H23, in the experiment on OVCAR-3 and with HOP-92 was > 100 µM (inactive) each time. Further, the GI50 in the experiment on IGROV-1, in the experiment with SK-MEL-5, in the experiment on UACC-257, with RXF 393, with PC-3 and with SK-MEL-28 was > 100 µM (inactive) each time. Also, the GI50 with NCI-H522, in the experiment with HCT-116, in the experiment with OVCAR-4, in the experiment with HT-29 and in the experiment with SNB-19 was > 100 µM (inactive) throughout.
Regarding `Clc1ccc(C(OCn2ccnc2)c2nc3ccccc3[nH]2)c(Cl)c1` (configuration not stated), the GI50 was 61.8 µM (inactive) with SF-268; > 100 µM (inactive) in the experiment on KM12; 59.3 µM (inactive) in the experiment with Hs-578T; 32.2 µM (inactive) in the experiment with NCI-H23; 23.5 µM (inactive) in the experiment on OVCAR-3; 0.312 µM (active) with HOP-92. Besides, the GI50 was 43.3 µM (inactive) in the experiment with IGROV-1; 16.2 µM (inactive) in the experiment on SK-MEL-5; 35.5 µM (inactive) in the experiment with UACC-257; 35.2 µM (inactive) in the experiment on PC-3; 48.3 µM (inactive) with SK-MEL-28; 43.1 µM (inactive) in the experiment on NCI-H522. Also, the GI50 in the experiment on HCT-116 is 33.8 µM (inactive); in the experiment on OVCAR-4 it was 16.6 µM (inactive); with SF-539, 35.8 µM (inactive); in the experiment with HT-29, 53.3 µM (inactive); in the experiment on SNB-19 it was 89.3 µM (inactive).
As for `NCC(O)CNCC/C=C\C/C=C\C/C=C\C/C=C\C/C=C\C/C=C\CCCCC/C=C\CCNCC(O)CN` (configuration not stated), the GI50 in the experiment with SF-268 is 1.83 µM (inactive); in the experiment on KM12 it was 1.58 µM (inactive); in the experiment on Hs-578T, 1.36 µM (inactive); with OVCAR-3, 1.98 µM (inactive); in the experiment with HOP-92 it was 2.01 µM (inactive); with IGROV-1 it was 1.71 µM (inactive). In addition, the GI50 with UACC-257 was 2.13 µM (inactive); in the experiment on PC-3, 1.92 µM (inactive); in the experiment with SK-MEL-28, 3.4 µM (inactive); in the experiment on NCI-H522, 1.53 µM (inactive); with HCT-116 it was 1.78 µM (inactive); in the experiment with OVCAR-4 it was 1.93 µM (inactive). Further, the GI50 in the experiment on SF-539 was 1.9 µM (inactive); with HT-29, 1.75 µM (inactive); with SNB-19 it was 1.9 µM (inactive).
On to `O=C1CC(c2cccc([N+](=O)[O-])c2)C2(C(=O)NC(=S)NC2=O)C(c2cccc([N+](=O)[O-])c2)C1` (configuration not stated), for which the GI50 in the experiment on SF-268 is 15.9 µM (inactive); in the experiment on KM12 it was 26.6 µM (inactive); in the experiment with Hs-578T, 22.8 µM (inactive); with NCI-H23, 29.2 µM (inactive); in the experiment with OVCAR-3, 35.2 µM (inactive); with HOP-92, 28.2 µM (inactive). Besides, the GI50 with IGROV-1 was 31.3 µM (inactive); in the experiment with SK-MEL-5, 82.2 µM (inactive); in the experiment on UACC-257 it was 89.7 µM (inactive); with PC-3, 51.6 µM (inactive); with SK-MEL-28, 52.8 µM (inactive); with NCI-H522, 30 µM (inactive). In addition, the GI50 is 18.7 µM (inactive) in the experiment on HCT-116; 37.4 µM (inactive) in the experiment on OVCAR-4; 40.6 µM (inactive) with SF-539; 40.9 µM (inactive) in the experiment with HT-29; 21.8 µM (inactive) in the experiment with SNB-19.
As for `CC1(C)C2CC(=O)C1(C)C(O)C2Br` (configuration not stated), the GI50 was > 100 µM (inactive) with SF-268; > 100 µM (inactive) in the experiment with KM12; 98.2 µM (inactive) in the experiment on Hs-578T; > 100 µM (inactive) with NCI-H23; > 100 µM (inactive) with OVCAR-3; > 100 µM (inactive) with HOP-92. Moreover, the GI50 in the experiment with IGROV-1, in the experiment with SK-MEL-5, in the experiment on RXF 393, in the experiment with PC-3, in the experiment with SK-MEL-28 and in the experiment on HCT-116 was > 100 µM (inactive) each time. Also, the GI50 in the experiment on SF-539, in the experiment on HT-29 and in the experiment on SNB-19 was > 100 µM (inactive) throughout.
Consider `O=S(=O)(O)/C(=N\c1cccc(Cc2ccccc2)c1)Nc1cccc(Cc2ccccc2)c1`, for which the GI50 with SF-268 was 17.7 µM (inactive); with KM12 it was 17.3 µM (inactive); in the experiment on Hs-578T it was 19.1 µM (inactive); with NCI-H23, 16.4 µM (inactive); in the experiment with HOP-92, 14.9 µM (inactive); in the experiment on IGROV-1, 16.6 µM (inactive). Further, the GI50 in the experiment with SK-MEL-5 is 18.1 µM (inactive); with UACC-257, 24.2 µM (inactive); with RXF 393 it was 16.4 µM (inactive); in the experiment with PC-3 it was 18.3 µM (inactive); in the experiment on SK-MEL-28, 19.6 µM (inactive); in the experiment on NCI-H522 it was 14.9 µM (inactive). Moreover, the GI50 in the experiment on HCT-116 is 14.9 µM (inactive); in the experiment with OVCAR-4, 19.5 µM (inactive); in the experiment on SF-539 it was 16.3 µM (inactive); in the experiment on HT-29 it was 18 µM (inactive); in the experiment with SNB-19 it was 21.2 µM (inactive).
For `Cc1ccccc1Nc1cn(CCOc2ccccc2)c(=O)n(CCOc2ccccc2)c1=O`, the GI50 in the experiment on SF-268 is > 100 µM (inactive); with KM12, > 100 µM (inactive); in the experiment with Hs-578T it was > 100 µM (inactive); in the experiment on NCI-H23, > 100 µM (inactive); in the experiment on OVCAR-3, > 100 µM (inactive); in the experiment on HOP-92 it was 19 µM (inactive). The GI50 in the experiment on IGROV-1, with SK-MEL-5, in the experiment with UACC-257, in the experiment on RXF 393, in the experiment with PC-3 and in the experiment with SK-MEL-28 was > 100 µM (inactive) in each case. Besides, the GI50 is 12.5 µM (inactive) in the experiment with NCI-H522; > 100 µM (inactive) with HCT-116; 58.7 µM (inactive) in the experiment on OVCAR-4; > 100 µM (inactive) in the experiment with HT-29; > 10 µM (inactive) with SNB-19.

The values are drawn from ChEMBL document CHEMBL1201862, “PubChem BioAssay data set” (2004).
